Source: PubChem BioAssay AID1963986 (Molecular Pharmacology Branch, DTP, NCI, 2024)
Several values for one entry are separate records, joined by “and”; a condition that tells them apart may be missing. Identical values can stand only once.

System: 171881-019-R-J1-PDC tumor spheroid viability
Experiment: Anticancer human tumor 171881-019-R-J1-PDC patient-derived invasive breast carcinoma cell line growth inhibition [PI3K]
Conditions: spheroids with HUVEC and MSC; for viability, T/C: stronger effect = lower value
Procedure, shortened: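 Agents were dosed from a top concentration near clinical Cmax (otherwise 10 microM) in half-log decrements, alone or combined with PI3K inhibitors. The spheroids contain tumor cells plus endothelial (HUVEC) and MSC stroma; viability is measured.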
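Further: spheroids exposed to compound for 7 days before viability read.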
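Wherever viability, T/C is given: 100% = DMSO vehicle-treated spheroids.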

For `CCN1CCN(Cc2ccc(Nc3ncc(F)c(-c4cc(F)c5nc(C)n(C(C)C)c5c4)n3)nc2)CC1`, the viability, T/C (compound 0.00316 µM) was 98.7% [middle of 4 runs], the viability, T/C (compound 0.01 µM) was 99.5% [middle of 4 runs] and the viability, T/C (compound 0.0316 µM) was 95.2% and 108% (2×) and 103%. For the same molecule, the viability, T/C (compound 0.1 µM) was 107% [middle of 4 runs], the viability, T/C (compound 0.316 µM) was 115% [middle of 4 runs] and the viability, T/C (compound 1 µM) was 122% [middle of 4 runs]. The IC50 (curve of compound) was > 1000 nM.

With `CCN1CCN(Cc2ccc(Nc3ncc(F)c(-c4cc(F)c5nc(C)n(C(C)C)c5c4)n3)nc2)CC1` + COc1c(OCCCN2CCOCC2)ccc2c3n(c(=NC(=O)c4cnc(N)nc4)nc12)CCN3 the IC50 (curve of first compound, second compound 0.00316 µM) was > 1000 nM, the IC50 (curve of first compound, second compound 0.01 µM) was > 1000 nM and the IC50 (curve of first compound, second compound 0.0316 µM) was < 3.16 nM. For the same molecule, the IC50 (curve of first compound, second compound 0.1 µM) was < 3.16 nM, the IC50 (curve of first compound, second compound 0.316 µM) was < 3.16 nM and the IC50 (curve of first compound, second compound 1 µM) was < 3.16 nM. The viability, T/C (second compound 0.00316 µM, first compound 0.00316 µM) was 71.9%, the viability, T/C (second compound 0.00316 µM, first compound 0.01 µM) was 73.1% and the viability, T/C (second compound 0.00316 µM, first compound 0.0316 µM) was 83.8%. It also gave a viability, T/C (second compound 0.00316 µM, first compound 0.1 µM) of 80.4%, a viability, T/C (second compound 0.00316 µM, first compound 0.316 µM) of 93.8% and a viability, T/C (second compound 0.00316 µM, first compound 1 µM) of 99.6%. The viability, T/C (second compound 0.01 µM, first compound 0.00316 µM) was 48.9%, the viability, T/C (second compound 0.01 µM, first compound 0.01 µM) was 56.9% and the viability, T/C (second compound 0.01 µM, first compound 0.0316 µM) was 53.6%. The viability, T/C (second compound 0.01 µM, first compound 0.1 µM) was 63.8%, the viability, T/C (second compound 0.01 µM, first compound 0.316 µM) was 69% and the viability, T/C (second compound 0.01 µM, first compound 1 µM) was 83.2%. For the same molecule, the viability, T/C (second compound 0.0316 µM, first compound 0.00316 µM) was 27.4%, the viability, T/C (second compound 0.0316 µM, first compound 0.01 µM) was 31.5% and the viability, T/C (second compound 0.0316 µM, first compound 0.0316 µM) was 33.8%. It also gave a viability, T/C (second compound 0.0316 µM, first compound 0.1 µM) of 36.9%, a viability, T/C (second compound 0.0316 µM, first compound 0.316 µM) of 44.6% and a viability, T/C (second compound 0.0316 µM, first compound 1 µM) of 50.6%. It also gave a viability, T/C (second compound 0.1 µM, first compound 0.00316 µM) of 10.5%, a viability, T/C (second compound 0.1 µM, first compound 0.01 µM) of 10.2% and a viability, T/C (second compound 0.1 µM, first compound 0.0316 µM) of 12.2%. It also gave a viability, T/C (second compound 0.1 µM, first compound 0.1 µM) of 12.8%, a viability, T/C (second compound 0.1 µM, first compound 0.316 µM) of 16% and a viability, T/C (second compound 0.1 µM, first compound 1 µM) of 23.8%. The viability, T/C (second compound 0.316 µM, first compound 0.00316 µM) was 2.23%, the viability, T/C (second compound 0.316 µM, first compound 0.01 µM) was 2.11% and the viability, T/C (second compound 0.316 µM, first compound 0.0316 µM) was 2.24%. It also gave a viability, T/C (second compound 0.316 µM, first compound 0.1 µM) of 2.94%, a viability, T/C (second compound 0.316 µM, first compound 0.316 µM) of 4.39% and a viability, T/C (second compound 0.316 µM, first compound 1 µM) of 7.79%. The viability, T/C (second compound 1 µM, first compound 0.00316 µM) was 0.86%, the viability, T/C (second compound 1 µM, first compound 0.01 µM) was 1.08% and the viability, T/C (second compound 1 µM, first compound 0.0316 µM) was 1.81%. For the same molecule, the viability, T/C (second compound 1 µM, first compound 0.1 µM) was 1.03%, the viability, T/C (second compound 1 µM, first compound 0.316 µM) was 1.58% and the viability, T/C (second compound 1 µM, first compound 1 µM) was 2.28%.

`C#Cc1c(F)ccc2cc(O)cc(-c3ncc4c(N5CC6CCC(C5)N6)nc(OCC56CCCN5CC(F)C6)nc4c3F)c12` (stereo unspecified) was tested, and the viability, T/C (compound 0.0316 µM) was 86.7% [middle of 4 runs], the viability, T/C (compound 0.1 µM) was 70.6% [middle of 4 runs] and the viability, T/C (compound 0.316 µM) was 53.7% [middle of 4 runs]. The viability, T/C (compound 1 µM) was 40.4% [middle of 4 runs], the viability, T/C (compound 3.16 µM) was 35.4% [middle of 4 runs] and the viability, T/C (compound 10 µM) was 27.9% [middle of 4 runs]. The IC50 (curve of compound) was 425 nM [middle of 4 runs].
